Assay type: in vitro ADME
Method: To enhance the absorption efficiency of the drug loaded in the provided gel, the current density applied to the ion patch was adjusted. Specifically, caffeine was added to the gelatin gel laminated on the anode of the ion patch, and various current densities of 50, 100, and 150 μA were applied. The amount of caffeine absorbed into the skin was then measured and compared.

Cn1c(=O)c2c(ncn2C)n(C)c1=O [caffeine]
amount of caffeine absorbed into the skin: highest in the order of 150, 50, and 100 μA current densities

Reference: US20250345592A1, “BIODEGRADABLE ION PATCH AND METHOD FOR MANUFACTURING THE SAME” (SEOUL NATIONAL UNIVERSITY R&DB FOUNDATION, priority 2023, published 2025)
